Measurements: ChEMBL document CHEMBL3217520, “Histamine H3 receptor ligands with a 3-cyclobutoxy motif: a novel and versatile constraint of the classical 3-propoxy linker” (Medchemcomm, 2010)

Columns and labels:
Histamine H3 receptor [1] = molecular target: T1, Histamine H3 receptor (Homo sapiens, UniProt Q9Y5N1); assay: Inverse agonist activity at human histamine H3 receptor expressed in CHO cells assessed as inhibition of [35S]-GTPgammaS binding by liquid scintillation counting; assay type: functional, cell-based
Histamine H3 receptor [2] = molecular target: T1, Histamine H3 receptor; assay: Displacement of [3H]-Nalpha-methylhistamine from human histamine H3 receptor expressed in CHO cells by liquid scintillation counting; assay type: cell-based

T1 sequence (Q9Y5N1 whole entry): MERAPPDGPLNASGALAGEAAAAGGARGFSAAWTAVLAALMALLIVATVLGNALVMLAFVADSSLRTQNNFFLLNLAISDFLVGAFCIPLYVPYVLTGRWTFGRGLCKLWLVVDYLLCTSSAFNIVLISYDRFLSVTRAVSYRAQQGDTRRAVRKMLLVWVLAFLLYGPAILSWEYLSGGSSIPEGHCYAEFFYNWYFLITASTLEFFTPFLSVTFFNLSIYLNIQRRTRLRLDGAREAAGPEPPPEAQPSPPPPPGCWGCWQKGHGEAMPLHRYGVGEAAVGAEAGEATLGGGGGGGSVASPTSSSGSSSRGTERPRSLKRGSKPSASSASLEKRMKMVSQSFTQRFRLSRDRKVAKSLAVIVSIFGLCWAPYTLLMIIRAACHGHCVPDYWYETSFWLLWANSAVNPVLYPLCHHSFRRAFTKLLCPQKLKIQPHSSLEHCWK

Row | Structure (SMILES) | EC50 (Histamine H3 receptor [1]) [nM] | Ki (Histamine H3 receptor [2]) [nM]
1 | COC(=O)c1oc(-c2ccc(O[C@H]3C[C@H](N4CCCCC4)C3)cc2)nc1C | 1.58 | 2
2 | c1cc(C2=NC3(CCCCC3)CO2)ccc1OCCCN1CCCCC1 | 7.94 | 79.4
3 | c1cc(-c2nc(CN3CCCCC3)co2)ccc1OCCCN1CCCCC1 | 1.58 | 6.31
4 | CC1(C)COC(c2ccc(OCCCN3CCCCC3)cc2)=N1 | 15.8 | 158
5 | c1cc(C2=NC3(CCCCC3)CO2)ccc1O[C@H]1C[C@H](N2CCCCC2)C1 | 2 | 2
6 | CC1(C)COC(c2ccc(O[C@H]3C[C@H](N4CCCCC4)C3)cc2)=N1 | 0.631 | 7.94
7 | c1cc(-c2nc(CN3CCCCC3)co2)ccc1O[C@H]1C[C@H](N2CCCCC2)C1 | 3.16 | 1.26
8 | c1cc(C2=NC3(CCCCC3)CO2)ccc1O[C@H]1C[C@@H](N2CCCCC2)C1 | 79.4 | 251
